Data reported in patent US20170265465A1, “BIORATIONAL TREATMENT PRODUCTS AND METHODS OF USING SAME” (Board of Trustees of Michigan State University, priority 2014, published 2017).

Key:
[1] = system: irrigated putting green; assay: Example 15: visual turfgrass growth rating; type: in vivo; conditions: scale 1-5 (1 = least, 5 = most)
Protocol: (§1) The study was established in four replications of a randomized block design utilizing 2 ft.×21 ft. plots with 6 inch alleys. Treatments were initially applied on Sep. 13, 2016 with the same sprayer and under the same conditions described in Example 1. Turfgrass quality ratings and biomass ratings were performed as described in Example 1. The plots were trimmed on September 19, October 8, and Oct. 24, 2016 and clippings were also collected as described in Example 1.
(§2) Treatments were re-applied on Sep. 28, 2016 and Oct. 11, 2016. Turfgrass visual growth and quality ratings were taken periodically, along with turfgrass color ratings as taken with a Spectrum Technologies, Inc. TCM 500 NDVI Color Meter and a Spectrum Technologies, Inc. FieldScout CM 1000 Chlorophyll Meter. The study was irrigated as needed to prevent wilt. No background fertility was applied to the study area. The area was sprayed with 26GT fungicide on Sep. 27, 2016 to control dollar spot disease.

[2] = system: irrigated putting green; assay: Example 15: turfgrass color (chlorophyll) rating, FieldScout CM 1000 Chlorophyll Meter; type: in vivo
Protocol: as §1, §2
The turfgrass color (chlorophyll) rating of Oct.

[3] = Trt. 4, 0.1 lb N/1000 sq. ft. /14 days, Oct. 6
[4] = Trt. 5, 0.05 lb N/1000 sq. ft. /14 days, Oct. 6

NC(N)=O [Urea (46-0-0), urea]
Visual Turfgrass Growth, MEAN [1, 3]: 2.5 | Visual Turfgrass Growth, MEAN ([1]; Trt. 4, 0.1 lb N/1000 sq. ft. /14 days, Sept. 19): 2.5 | Visual Turfgrass Growth, MEAN ([1]; Trt. 4, 0.1 lb N/1000 sq. ft. /14 days, Sept. 25): 3.8 | Visual Turfgrass Growth, MEAN [1, 4]: 2.3 | Visual Turfgrass Growth, MEAN ([1]; Trt. 5, 0.05 lb N/1000 sq. ft. /14 days, Sept. 19): 2.8 | Visual Turfgrass Growth, MEAN ([1]; Trt. 5, 0.05 lb N/1000 sq. ft. /14 days, Sept. 25): 3.3 | Turfgrass Color (Greenness), MEAN, chlorophyll meter reading [2, 3]: 352.5 | Turfgrass Color (Greenness), MEAN, chlorophyll meter reading ([2]; Trt. 4, 0.1 lb N/1000 sq. ft. /14 days, Oct. 25): 272.3 | Turfgrass Color (Greenness), MEAN, chlorophyll meter reading [2, 4]: 352.3 | Turfgrass Color (Greenness), MEAN, chlorophyll meter reading ([2]; Trt. 5, 0.05 lb N/1000 sq. ft. /14 days, Oct. 25): 261
